Where “and” joins values, the source holds several entries; their conditions need not be identical. Equal values may be shown once. Entries after “also recorded” stand apart in the source; their conditions may differ.
Tests used:
[1] = Phase 2a study, safety (adverse events); conditions: for Candida infection: patients with at least one event: BID, N = 23
[2] = in vivo
[3] = system: moderate or severe atopic dermatitis; assay: Phase 2a study, efficacy (EASI/mEASI, PP-NRS); format: in vivo, human
Source text: (§1) PK blood draws assessed systemic exposure.
Fifty (50) subjects, aged 18-65 years, male and female were selected to use either a topical formulation comprising 2% w/w Compound I or a placebo. Pertinent inclusion criteria for the study included: (i) a diagnosis of atopic dermatitis (AD) fulfilled the specified diagnostic criteria of Hanifin and Rajka (Hanifin J M, Rajka G. Diagnostic features of atopic dermatitis. Acta Derm Venereol. Suppl 1980; 92: 44-7, which is hereby incorporated by reference in its entirety); (ii) a 6-month history of AD; (iii) no significant AD flares for 4 weeks prior; (iv) at least 1 lesion measuring […], but not located on the hands, feet, or genitalia; (v) a stable diagnosis of moderate or severe (Investigator's Global Assessment (IGA) score of 3 or 4); (vi) Eczema Area and Severity Index (EASI) score of ≤48; and (vii) have AD affecting 3% to 20% of Body Surface Area (BSA) (not including head, […], soles of feet, groin, and genitalia).
The 50 subjects were randomized into 2% Compound I treatment (n=23) and vehicle treatment (n=25) groups. Two of the subjects were randomized but not treated. Of the allocated subjects, 91% (n=21) of the Compound I treatment group and 72% (n=18) completed the study. The demographics and baseline characteristics of the study subjects is provided below in Table 3.
(§2) The topical formulation was applied topically twice per day, approximately 8 to 12 hours apart. Up to 8 mL, 1 mL at a time, is applied to an identified AD target area of the subject and rubbed into said area by the subject to achieve a thin film on the skin. Less than 8 mL may be used if less is required to fully cover the identified AD target area. Subjects document symptoms of AD, such as itching, on a daily basis. Subjects were asked to abstain from washing the treated area within 6 hours after application, minimize sun exposure, refrain from using moisturizers, emollients, and sunscreen on the treatment areas, and refrain from activities that would cause profuse sweating (e.g., exercise) for a period of 6 hours after each application. The study ran 4 weeks. On days 1, 8, and 15, a pharmacokinetic sample (e.g., blood) was collected from each subject about 2 hours after application of the topical formulation. On day 28, the following pharmacokinetic samples were collected: • Subgroup 1: One sample before application and one sample at 0.5 to 2.5 hours post application • Subgroup 2: One sample at 2.5 to 5 hours post application and one sample at least 2 hours later • Subgroup 3: One sample at 5 to 8 hours post application and one sample at least 2 hours later (prior to the subsequent application)
On each of these days 1, 8, 15, and 28, symptoms of AD in each subject were evaluated by EASI score, IGA, PP-NRS, and BSA. Primary efficacy of treatment was measured by a percent change from baseline EASI (EASI at day 1) to EASI at day 28.
Further measurements of efficacy included percent change in EASI between each of days 1, 8, 15, and 28 as well as change from baseline and/or prior evaluation of IGA, AD BSA, and PP-NRS on days 8, 15, and 28; percent of subjects achieving IGA scores of 0 to 1 combined with an improvement of 2 or more points from baseline by day 28; proportion of subjects who achieve 50%, 75%, and 90% improvement in EASI score (compared to baseline).
The primary efficacy endpoint of this trial was the percent change from baseline in the Eczema Area and Severity Index (EASI) score at week 4.

[4] = Phase 2a study, plasma pharmacokinetics; format: in vivo, human
Method: as §1, §2

CCOC(=O)c1cnc2[nH]ccc2c1N[C@@H]1CCCN(C(=O)CC#N)C1 [Compound I, ethyl (R)-4-((1-(2-cyanoacetyl)piperidin-3-yl)amino)-1H-pyrrolo[2,3-b]pyridine-5-carboxylate]
Deaths / serious adverse events ([1]; 4 weeks BID): No deaths or SAEs were reported; also recorded: No serious adverse events were reported
Candida infection: patients with at least one event ([1]; Mild): 0
Candida infection: patients with at least one event ([1]; Moderate): 1 (4.3)
Candida infection: patients with at least one event ([1]; Severe): 0
Application site irritation: patients with at least one event ([2]; human): 0
Oropharyngeal pain: patients with at least one event ([2]; human): 0
Pharyngitis streptococcal: patients with at least one event ([2]; human): 0
Rash: patients with at least one event ([2]; human): 0
SARS-CoV-2 test positive: patients with at least one event ([2]; human): 0
Sinus congestion: patients with at least one event ([2]; human): 0
Skin fragility: patients with at least one event ([2]; human): 0
Somnolence: patients with at least one event ([2]; human): 0
COVID-19: patients with at least one event ([2]; human, 4 weeks): 0
Related TEAE, last figure of the cell (number of events) ([2]; human, 4 weeks): 1
Severe TEAE, last figure of the cell (number of events) ([2]; human, 4 weeks): 2
Subjects reporting AEs ([2]; human, 4 weeks): 9/23
Subjects with at least one SAE ([2]; human, 4 weeks): 0
Subjects with at least one TEAE leading to discontinuation of study drug ([2]; human, 4 weeks): 0
Subjects with at least one TEAE, number (percent) ([2]; human, 4 weeks): 9 (39.1)
Subjects with at least one related TEAE, number (percent) ([2]; human, 4 weeks): 1 (4.3)
Subjects with at least one severe TEAE, number (percent) ([2]; human, 4 weeks): 2 (8.7)
TEAE, last figure of the cell (number of events, agrees with Table 7) ([2]; human, 4 weeks): 16
Severe adverse events [2]: Two unrelated severe events (AF and elevated CPK)
Thrombosis [2]: no reports of thrombosis
Tolerability [2]: generally well tolerated
Mean decrease in PP-NRS score relative to baseline ([3]; after one week, 2% BID): 1.72
Patients achieving 50% improvement in EASI score (EASI 50) ([3]; end of week 1 (day 8), 2% BID): 34.8%
Patients achieving 75% improvement in EASI score (EASI 75) ([3]; end of week 1 (day 8), 2% BID): 13.0%
Patients achieving 90% improvement in EASI score (EASI 90) ([3]; end of week 1 (day 8), 2% BID): 4.3%
Patients achieving 50% improvement in EASI score (EASI 50) ([3]; end of week 2 (day 15), 2% BID): 69.6%
Patients achieving 75% improvement in EASI score (EASI 75) ([3]; end of week 2 (day 15), 2% BID): 21.7%
Patients achieving 90% improvement in EASI score (EASI 90) ([3]; end of week 2 (day 15), 2% BID): 8.7%
Patients achieving 50% improvement in EASI score (EASI 50) ([3]; end of week 4 (day 28), 2% BID): 91.3%
Patients achieving 75% improvement in EASI score (EASI 75) ([3]; end of week 4 (day 28), 2% BID): 65.2%
Patients achieving 90% improvement in EASI score (EASI 90) ([3]; end of week 4 (day 28), 2% BID): 30.4%
Reduction in mean mEASI score from baseline ([3]; week 4 (day 28), 2.0% topical solution BID, FAS N=23, primary endpoint): 74.4% and 74.5%
Mean drug levels in plasma relative to IC50 ([4]; 2% BID topical, 4 weeks): ≤ 5 % of the IC50
Plasma samples with Compound I levels below the lower limit of quantitation of 0.1 ng/mL ([4]; 4-week topical treatment, 2% BID): Greater than 86%
Plasma samples with concentration of the active compound below 1 ng/ml ([4]; 4-week topical treatment, treatment arm): greater than 86%
Average plasma concentration ([4]; Day 1, 2 hr post dose): 1.604 ng/mL
Average plasma concentration ([4]; Day 8, 2 hr post dose): 0.519 ng/mL
Average plasma concentration ([4]; Day 28, pre dose): 0.328 ng/mL
All plasma concentrations relative to IC50 ([4]; IC50=36 ng/mL, 2% BID topical): less than half of the IC50
Plasma Compound I CONC ([4]; subject 004-0002, Day 1, hour 0 Predose, LLOQ 0.100): <LLOQ
Plasma Compound I CONC ([4]; subject 004-0002, Day 1, hour 2, LLOQ 0.100): <LLOQ
Plasma Compound I CONC ([4]; subject 004-0002, Day 8, hour 2): 0.229 ng/mL
Plasma Compound I CONC ([4]; subject 004-0002, Day 15, hour 2, LLOQ 0.100): <LLOQ
